Measurements from ChEMBL document CHEMBL5375999, “Discovery of a Dual Tubulin and Neuropilin-1 (NRP1) Inhibitor with Potent In Vivo Anti-Tumor Activity via Pharmacophore-based Docking Screening, Structure Optimization, and Biological Evaluation” (J Med Chem, 2023).
The source made the active and inactive calls. The rule behind the calls is not given here.

Legend:
[1] = target: Neuropilin-1 (Homo sapiens) (UniProt O14786); assay: Inhibition of [125I]-VEGF-A165 binding to NRP1 (unknown origin) transfected in HUVECs at 12 uM incubated for 2 hrs by plate reader analysis relative to control; format: cell-based; details: HUVEC
Chain of Neuropilin-1 (Homo sapiens) (O14786 whole entry): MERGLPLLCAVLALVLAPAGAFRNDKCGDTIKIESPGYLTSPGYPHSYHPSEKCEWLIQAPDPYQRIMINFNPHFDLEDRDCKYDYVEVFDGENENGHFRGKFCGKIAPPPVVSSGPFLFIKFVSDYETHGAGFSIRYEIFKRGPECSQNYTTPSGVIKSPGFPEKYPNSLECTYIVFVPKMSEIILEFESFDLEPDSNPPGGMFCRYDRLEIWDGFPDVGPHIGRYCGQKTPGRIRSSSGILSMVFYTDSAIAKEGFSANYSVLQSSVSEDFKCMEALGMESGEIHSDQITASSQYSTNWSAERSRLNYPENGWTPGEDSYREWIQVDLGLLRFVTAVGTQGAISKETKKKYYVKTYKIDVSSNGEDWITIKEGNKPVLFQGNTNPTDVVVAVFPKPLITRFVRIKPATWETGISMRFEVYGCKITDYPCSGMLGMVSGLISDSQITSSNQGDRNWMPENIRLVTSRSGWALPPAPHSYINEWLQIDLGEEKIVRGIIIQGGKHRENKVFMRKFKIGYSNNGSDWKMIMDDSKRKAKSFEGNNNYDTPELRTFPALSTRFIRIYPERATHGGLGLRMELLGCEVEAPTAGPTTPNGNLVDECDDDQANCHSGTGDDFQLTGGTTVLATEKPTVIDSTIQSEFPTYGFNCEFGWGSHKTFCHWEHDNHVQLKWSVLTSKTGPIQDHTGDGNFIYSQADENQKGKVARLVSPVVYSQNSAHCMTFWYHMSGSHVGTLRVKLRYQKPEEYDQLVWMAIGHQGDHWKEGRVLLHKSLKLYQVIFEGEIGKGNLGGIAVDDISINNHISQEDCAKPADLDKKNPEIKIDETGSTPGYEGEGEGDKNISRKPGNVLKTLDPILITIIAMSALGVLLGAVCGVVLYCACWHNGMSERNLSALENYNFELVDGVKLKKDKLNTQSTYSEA

Tubulin = assay: Inhibition of tubulin polymerization (unknown origin) by spectrophotometric analysis; format: protein-complex assay, Homo sapiens
[2] = target: Vascular endothelial growth factor receptor 1 (Homo sapiens, UniProt P17948); assay: Inhibition of VEGFR1 (unknown origin)
Neuropilin-2 = Neuropilin-2 (Homo sapiens, UniProt O60462); assay: Inhibition of NRP2 (unknown origin)
[3] = target: Atypical kinase COQ8B, mitochondrial (Homo sapiens, UniProt Q96D53); assay: Inhibition of ADCK4 (unknown origin)
Chain of Atypical kinase COQ8B, mitochondrial (Q96D53 whole entry): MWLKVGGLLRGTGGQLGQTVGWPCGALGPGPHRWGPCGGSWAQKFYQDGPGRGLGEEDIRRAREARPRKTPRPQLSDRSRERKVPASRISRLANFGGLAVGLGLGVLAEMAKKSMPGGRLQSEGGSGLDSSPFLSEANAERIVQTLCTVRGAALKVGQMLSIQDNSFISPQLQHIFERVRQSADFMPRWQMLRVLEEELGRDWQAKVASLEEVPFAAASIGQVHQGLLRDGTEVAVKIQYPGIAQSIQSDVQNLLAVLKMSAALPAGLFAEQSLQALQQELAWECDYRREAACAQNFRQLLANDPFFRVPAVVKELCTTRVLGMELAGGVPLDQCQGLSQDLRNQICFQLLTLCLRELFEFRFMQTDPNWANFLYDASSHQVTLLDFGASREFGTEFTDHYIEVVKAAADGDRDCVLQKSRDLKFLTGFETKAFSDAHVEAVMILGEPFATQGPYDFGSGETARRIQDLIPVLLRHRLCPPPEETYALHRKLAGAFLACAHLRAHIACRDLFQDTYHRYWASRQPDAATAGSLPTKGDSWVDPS

[4] = target: RAC-gamma serine/threonine-protein kinase (Homo sapiens, UniProt Q9Y243); assay: Inhibition of AKT3 (unknown origin)
[5] = target: Cytoplasmic tyrosine-protein kinase BMX (Homo sapiens, UniProt P51813); assay: Inhibition of BMX (unknown origin)
Chain of Cytoplasmic tyrosine-protein kinase BMX (P51813 whole entry): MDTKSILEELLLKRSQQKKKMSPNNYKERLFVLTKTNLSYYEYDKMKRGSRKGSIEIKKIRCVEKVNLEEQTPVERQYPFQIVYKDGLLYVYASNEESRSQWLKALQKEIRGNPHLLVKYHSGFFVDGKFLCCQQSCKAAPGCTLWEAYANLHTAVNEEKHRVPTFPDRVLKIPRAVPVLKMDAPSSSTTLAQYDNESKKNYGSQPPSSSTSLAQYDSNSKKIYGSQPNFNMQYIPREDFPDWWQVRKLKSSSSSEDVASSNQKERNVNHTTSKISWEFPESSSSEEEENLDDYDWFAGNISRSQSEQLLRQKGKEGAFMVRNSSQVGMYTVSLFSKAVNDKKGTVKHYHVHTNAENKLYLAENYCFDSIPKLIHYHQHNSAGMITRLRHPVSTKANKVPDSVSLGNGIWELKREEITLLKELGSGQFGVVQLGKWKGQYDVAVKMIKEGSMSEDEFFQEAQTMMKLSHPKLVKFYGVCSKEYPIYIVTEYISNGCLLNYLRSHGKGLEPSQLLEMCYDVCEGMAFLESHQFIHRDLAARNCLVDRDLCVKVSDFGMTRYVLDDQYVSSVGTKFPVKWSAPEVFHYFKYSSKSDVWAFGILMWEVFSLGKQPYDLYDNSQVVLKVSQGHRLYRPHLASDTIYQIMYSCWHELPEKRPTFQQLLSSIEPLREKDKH

[6] = target: Cyclin-dependent kinase 2 (Homo sapiens, UniProt P24941); assay: Inhibition of CDK2 (unknown origin)
[7] = target: Cyclin-dependent kinase 5 (Homo sapiens, UniProt Q00535); assay: Inhibition of CDK5 (unknown origin)
Chain of Cyclin-dependent kinase 5 (Q00535 whole entry): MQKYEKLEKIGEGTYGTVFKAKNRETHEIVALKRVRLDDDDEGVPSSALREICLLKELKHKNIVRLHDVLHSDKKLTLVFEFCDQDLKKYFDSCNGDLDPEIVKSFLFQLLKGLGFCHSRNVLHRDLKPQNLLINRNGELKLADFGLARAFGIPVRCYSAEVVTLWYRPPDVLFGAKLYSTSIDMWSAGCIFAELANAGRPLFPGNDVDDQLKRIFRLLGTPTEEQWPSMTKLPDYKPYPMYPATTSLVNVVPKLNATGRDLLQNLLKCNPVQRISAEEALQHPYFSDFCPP

[8] = target: Dual specificity protein kinase TTK (Homo sapiens, UniProt P33981); assay: Inhibition of TTK (unknown origin)
[9] = target: Cyclin-G-associated kinase (Homo sapiens, UniProt O14976); assay: Inhibition of GAK (unknown origin)
Chain of Cyclin-G-associated kinase (O14976 whole entry): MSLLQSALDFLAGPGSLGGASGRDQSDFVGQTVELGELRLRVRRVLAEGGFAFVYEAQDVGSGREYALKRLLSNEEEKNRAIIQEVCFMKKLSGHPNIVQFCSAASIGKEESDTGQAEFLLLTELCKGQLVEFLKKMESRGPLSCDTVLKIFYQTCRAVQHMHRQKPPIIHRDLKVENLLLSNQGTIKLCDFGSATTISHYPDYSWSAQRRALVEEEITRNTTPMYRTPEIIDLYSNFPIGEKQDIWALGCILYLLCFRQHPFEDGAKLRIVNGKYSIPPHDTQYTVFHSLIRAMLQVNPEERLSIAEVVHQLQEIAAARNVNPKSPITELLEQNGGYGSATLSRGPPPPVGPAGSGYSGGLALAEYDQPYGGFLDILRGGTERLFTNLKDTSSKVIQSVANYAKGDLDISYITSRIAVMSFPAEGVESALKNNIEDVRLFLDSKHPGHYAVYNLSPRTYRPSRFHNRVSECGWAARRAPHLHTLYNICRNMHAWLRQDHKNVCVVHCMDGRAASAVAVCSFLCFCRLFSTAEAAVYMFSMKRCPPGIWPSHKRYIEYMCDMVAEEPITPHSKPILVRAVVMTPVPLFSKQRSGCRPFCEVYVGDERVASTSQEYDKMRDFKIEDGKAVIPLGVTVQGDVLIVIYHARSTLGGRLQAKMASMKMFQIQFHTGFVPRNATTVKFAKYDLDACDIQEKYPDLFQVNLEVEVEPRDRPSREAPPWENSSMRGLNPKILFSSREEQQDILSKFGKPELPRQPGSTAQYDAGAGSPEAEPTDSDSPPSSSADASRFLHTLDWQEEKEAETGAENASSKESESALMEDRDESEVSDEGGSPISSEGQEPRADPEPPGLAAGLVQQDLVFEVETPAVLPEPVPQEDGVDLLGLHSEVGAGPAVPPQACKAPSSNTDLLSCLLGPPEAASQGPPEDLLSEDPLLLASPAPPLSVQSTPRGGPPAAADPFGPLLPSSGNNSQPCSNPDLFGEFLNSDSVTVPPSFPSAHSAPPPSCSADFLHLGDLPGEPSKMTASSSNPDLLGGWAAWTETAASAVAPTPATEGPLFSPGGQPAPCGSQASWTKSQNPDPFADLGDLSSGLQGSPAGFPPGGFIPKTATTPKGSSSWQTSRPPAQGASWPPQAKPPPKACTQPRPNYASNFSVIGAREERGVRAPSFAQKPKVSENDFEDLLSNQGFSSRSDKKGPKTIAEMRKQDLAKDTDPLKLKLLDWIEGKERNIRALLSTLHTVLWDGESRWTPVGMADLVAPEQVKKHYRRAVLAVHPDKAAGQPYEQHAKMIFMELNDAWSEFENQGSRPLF

[10] = target: Serine/threonine-protein kinase ICK (Homo sapiens, UniProt Q9UPZ9); assay: Inhibition of ICK (unknown origin)
Chain of Serine/threonine-protein kinase ICK (Q9UPZ9 whole entry): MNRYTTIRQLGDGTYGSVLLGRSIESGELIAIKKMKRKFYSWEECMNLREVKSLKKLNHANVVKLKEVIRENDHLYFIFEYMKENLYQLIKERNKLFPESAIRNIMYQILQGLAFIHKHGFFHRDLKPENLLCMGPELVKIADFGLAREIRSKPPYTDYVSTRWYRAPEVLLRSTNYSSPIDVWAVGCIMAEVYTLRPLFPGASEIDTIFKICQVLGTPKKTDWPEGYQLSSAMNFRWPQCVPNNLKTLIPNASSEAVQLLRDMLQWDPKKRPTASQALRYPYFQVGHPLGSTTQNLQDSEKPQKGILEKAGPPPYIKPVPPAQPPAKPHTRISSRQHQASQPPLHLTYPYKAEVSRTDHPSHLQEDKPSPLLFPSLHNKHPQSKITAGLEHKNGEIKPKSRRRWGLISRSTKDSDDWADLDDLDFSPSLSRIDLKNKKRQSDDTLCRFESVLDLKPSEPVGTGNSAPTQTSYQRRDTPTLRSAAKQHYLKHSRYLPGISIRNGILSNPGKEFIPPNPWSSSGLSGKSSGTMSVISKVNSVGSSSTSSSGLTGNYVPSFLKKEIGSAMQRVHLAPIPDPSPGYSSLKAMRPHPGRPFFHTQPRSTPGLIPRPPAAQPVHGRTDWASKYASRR

[11] = target: Tyrosine-protein kinase Lck (Homo sapiens, UniProt P06239); assay: Inhibition of LCK (unknown origin)
Chain of Tyrosine-protein kinase Lck (P06239 whole entry): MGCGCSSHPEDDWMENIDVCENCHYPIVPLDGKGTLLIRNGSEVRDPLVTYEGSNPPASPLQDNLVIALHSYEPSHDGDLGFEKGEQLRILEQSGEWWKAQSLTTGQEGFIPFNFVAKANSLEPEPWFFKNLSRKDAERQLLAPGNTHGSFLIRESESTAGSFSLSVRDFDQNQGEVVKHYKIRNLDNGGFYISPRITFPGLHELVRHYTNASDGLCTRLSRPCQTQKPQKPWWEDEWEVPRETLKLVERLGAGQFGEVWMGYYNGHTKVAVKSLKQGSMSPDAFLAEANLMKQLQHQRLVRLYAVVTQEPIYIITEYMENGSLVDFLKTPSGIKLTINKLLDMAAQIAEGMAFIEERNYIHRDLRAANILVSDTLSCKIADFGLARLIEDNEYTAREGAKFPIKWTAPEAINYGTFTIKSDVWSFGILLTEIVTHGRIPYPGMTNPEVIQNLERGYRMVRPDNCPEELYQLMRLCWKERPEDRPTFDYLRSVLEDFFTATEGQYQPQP

[12] = target: Serine/threonine-protein kinase MAK (Homo sapiens, UniProt P20794); assay: Inhibition of MAK (unknown origin)
[13] = target: Hepatocyte growth factor receptor (Homo sapiens, UniProt P08581); assay: Inhibition of MET (unknown origin)
[14] = target: Proto-oncogene tyrosine-protein kinase ROS (Homo sapiens, UniProt P08922); assay: Inhibition of ROS1 (unknown origin)
Tubulin (Homo sapiens) [15] = target: T1, Tubulin (Homo sapiens) (UniProt P68371+Q9H4B7+P0DPH7+P68366+Q13509+Q71U36+P04350+Q3ZCM7+P07437+P68363+Q9BQE3+Q6PEY2+Q13885+Q9BVA1+Q9BUF5); assay: Inhibition of tubulin polymerization in human PC-3 cells assessed as cell shrinkage at 0.1 to 12.5 uM incubated for 48 hrs by immunofluorescence assay; format: cell-based; details: dose 0.1-12.5 µM
Tubulin (Homo sapiens) [16] = target: T1, Tubulin (Homo sapiens); assay: Inhibition of tubulin polymerization in human PC-3 cells assessed as increase in nuclear disruption incubated for 48 hrs by immunofluorescence assay; format: cell-based; details: dose 0.1-12.5 µM
Tubulin (Homo sapiens) [17] = target: T1, Tubulin (Homo sapiens); assay: Inhibition of tubulin polymerization in human PC-3 cells assessed as increase in microtubule dispersion incubated for 48 hrs by immunofluorescence assay; format: cell-based; details: dose 0.1-12.5 µM
Tubulin (Homo sapiens) [18] = target: T1, Tubulin (Homo sapiens); assay: Inhibition of tubulin polymerization in human PC-3 cells assessed as appearance of blurred nucleus at 2.5 to 12.5 uM incubated for 48 hrs by immunofluorescence assay; format: cell-based; details: dose 2.5-12.5 µM
VCaP = assay: Cytotoxicity against human VCaP cells assessed as inhibition of cell viability incubated for 48 hrs by MTT assay; format: functional, cell-based
PC-3 [19] = assay: Antiproliferative activity against human PC-3 cells assessed as inhibition of cell growth at 0.1 to 12.5 uM incubated for 48 hrs by EdU incorporation based assay; format: functional; details: dose 0.1-12.5 µM
PC-3 [20] = assay: Inhibition of colony formation in human PC-3 cells incubated for 10 days by crystal violet staining based assay; format: functional, cell-based; details: dose 0.1-12.5 µM, time 10.0 day
PC-3 [21] = assay: Induction of cell cycle arrest in human PC-3 cells assessed as G0/G1 phase cells at 0.1 uM by flow cytometry analysis (reference value: 94.76%); format: functional
PC-3 [22] = assay: Induction of cell cycle arrest in human PC-3 cells assessed as S phase cells at 12.5 uM by flow cytometry analysis (reference value: 2%); format: functional
PC-3 [23] = assay: Induction of apoptosis in human PC-3 cells assessed as viable cells at 0.1 uM by Annexin-V FITC staining based flow cytometry analysis (reference value: 96.8%); format: functional; details: read-out: Activity
PC-3 [24] = assay: Induction of apoptosis in human PC-3 cells assessed as early apoptotic cells at 0.1 uM by Annexin-V FITC staining based flow cytometry analysis (reference value: 1.51%); format: functional
PC-3 [25] = assay: Induction of apoptosis in human PC-3 cells assessed as late apoptotic cells at 0.1 uM by Annexin-V FITC staining based flow cytometry analysis (reference value: 1.67%); format: functional
PC-3 [26] = assay: Induction of apoptosis in human PC-3 cells assessed as necrotic cells at 0.1 uM by Annexin-V FITC staining based flow cytometry analysis (reference value: 0.059%); format: functional
PC-3 [27] = assay: Induction of apoptosis in human PC-3 cells assessed as viable cells at 0.5 uM by Annexin-V FITC staining based flow cytometry analysis (reference value: 96.8%); format: functional; details: read-out: Activity
PC-3 [28] = assay: Induction of apoptosis in human PC-3 cells assessed as early apoptotic cells at 0.5 uM by Annexin-V FITC staining based flow cytometry analysis (reference value: 1.51%); format: functional
PC-3 [29] = assay: Induction of apoptosis in human PC-3 cells assessed as early apoptotic cells at 2.5 uM by Annexin-V FITC staining based flow cytometry analysis (reference value: 1.51%); format: functional
PC-3 [30] = assay: Induction of apoptosis in human PC-3 cells assessed as late apoptotic cells at 12.5 uM by Annexin-V FITC staining based flow cytometry analysis (reference value: 1.67%); format: functional
PC-3 [31] = assay: Induction of apoptosis in human PC-3 cells assessed as necrotic cells at 12.5 uM by Annexin-V FITC staining based flow cytometry analysis (reference value: 0.059%); format: functional
PC-3 [32] = assay: Induction of apoptosis in human PC-3 cells assessed as increase in cleaved caspase-3 expression at 0.5 to 12.5 uM incubated for 48 hrs by Western blotting analysis; format: functional, cell-based; details: dose 0.5-12.5 µM
PC-3 [33] = assay: Antitumor activity against human PC-3 cells xenografted in BALB/c nude mouse assessed as reduction in tumor volume at 5 to 10 mg/kg, ip administered every 4 days for 20 days; format: functional, organism-based; details: dose 5-10 mg/kg, time 20.0 day
PC-3 [34] = assay: Antitumor activity against human PC-3 cells xenografted in BALB/c nude mouse assessed as reduction in tumor weight at 5 to 10 mg/kg, ip administered every 4 days for 20 days; format: functional, organism-based; details: dose 5-10 mg/kg, time 20.0 day
[35] = Toxicity in BALB/c mouse xenografted with human PC-3 cells assessed as change in lung morphology at 5 to 10 mg/kg, ip administered every 4 days for 20 days by H and E staining based inverted microscopic assay; format: organism-based; details: in vivo, 480 h, dose 5-10 mg/kg, time 20 day
[36] = Tmax in Sprague-Dawley rat at 1.5 mg/kg, po measured upto 24 hrs by LC-MS/MS analysis; format: ADME, organism-based; details: in vivo

Compound: COc1ccc(/C=C\c2cc(OC)c(OC)c(OC)c2)cc1NC(=O)CCC(=O)N[C@@H](CCCNC(=N)N)C(=O)O
- inhibition [1]: 94%
- IC50 (Tubulin): 0.71 µM
- IC50 [2]: > 10 µM
- IC50 (Neuropilin-2): > 10 µM
- IC50 [3]: > 10 µM
- IC50 [4]: > 10 µM
- IC50 [5]: > 10 µM
- IC50 [6]: > 10 µM
- IC50 [7]: > 10 µM
- IC50 [8]: > 10 µM
- IC50 [9]: > 10 µM
- IC50 [10]: > 10 µM
- IC50 [11]: > 10 µM
- IC50 [12]: > 10 µM
- IC50 [13]: > 10 µM
- IC50 [14]: > 10 µM
- inhibition (Tubulin (Homo sapiens) [15]): Active
- inhibition (Tubulin (Homo sapiens) [16]): Dose-Dependent Effect
- inhibition (Tubulin (Homo sapiens) [17]): Dose-Dependent Effect
- inhibition (Tubulin (Homo sapiens) [18]): Active
- Activity (VCaP): Active
- Activity (PC-3 [19]): Active
- inhibition (PC-3 [20]): Dose-Dependent Effect
- Activity (PC-3 [21]): 93.57%
- Activity (PC-3 [22]): 34.85%
- viability at 0.1 µM (PC-3 [23]): 93.6%
- Activity (PC-3 [24]): 1.84%
- Activity (PC-3 [25]): 4.49%
- Activity (PC-3 [26]): 0.064%
- viability at 0.5 µM (PC-3 [27]): 91.6%
- Activity (PC-3 [28]): 2.95%
- Activity (PC-3 [29]): 3.63%
- Activity (PC-3 [30]): 6.04%
- Activity (PC-3 [31]): 0.083%
- Activity (PC-3 [32]): Active
- Activity (PC-3 [33]): Active
- Activity (PC-3 [34]): Active
- Activity [35]: Non-Toxic
- Tmax [36]: 30 min
